From patent US4328215A, “Method of reducing or avoiding the mutagenic activity of drugs” (The Johns Hopkins University, priority 1977, dated 1982)
Several values for one entry are separate records, joined by “and”; a condition that tells them apart may be missing. Equal values may be shown once.

Columns and labels:
Salmonella typhimurium = experiment: Mutagenic activity of urines of treated germ-free and conventional rats (Ames); type: in vivo; settings: for Revertants in excess of controls excreted in 24 hrs: 250 mg/kg oral
Protocol: Urine analysis (referred to above as the "Ames" test).
The schistosomicide 4-nitro-4'-[…] diphenylamine (CGP 4540) was orally administered to two germ-free rats and two conventional male Fisher rats weighing 220-240 grams. Urines from the thus treated animals were analyzed for mutagenic activity and assays were carried out as described in Journal of Pharmacology and Experimental Therapeutics, 200, 1-9 (1977) using the methodology of Ames et al (Mutat. Res., 31, 347-364). The mutagenic activities of the urines were determined in both the absence and presence of S9 (hepatic microsomal) fractions of phenobarbital pretreated rats (Ames et al, Proc. Nat. Acad. Sci, U.S.A., 71, 737-741, 1974) without and with preincubation with β-glucuronidase.
For test purposes, the isothiocyanate derivative was dissolved at 40° C. in a polyethoxylated vegetable oil (Emulphor El 620) to a final concentration of 50 mg/ml. Following sterilization by means of millipore filtration the mixture was administered by gastric intubation to two germ-free and two conventional male Fisher rats (weighing 220 to 240 gms) at a dose of 250 mg/kg of the isothiocyanate. One germ-free and one conventional rat that were given the filtered vehicle without the drug served as controls. The urines of each animal were collected for a period of 48 hours subsequent to administration of the drug or the filtered vehicle.
The germ-free rats used in the tests were kept in Tresder type plastic isolators. After administration of the isothiocyanate or the vehicle the germ-free rats were transferred into individual metabolism cages in the isolators.
The mutagenic activity determined for the test animals, expressed in terms of revertants in excess of the controls, is shown below: […]

Schistosoma mansoni [1] = experiment: Antischistosomal activity in infected mice; type: in vivo
Protocol: Six groups of test mice, infected with Schistosoma mansoni, were treated as follows:
(1) a single dose of formulated CGP 4540 (10 mg/kg) with no antibiotic administered;
(2) single dose of formulated CGP 4540 as in (1) but preceded by 100 mg/kg of erythromycin (base);
(4) same as (1) but using a CGP 4540 dosage of 15 mg/kg;
(5) same as (4) but preceded by a 100 mg/kg dose of erythromycin; and
All drugs were administered by gastric intubation.

bile ducts and the liver = experiment: Acute hepatotoxic effects; type: in vivo
Excerpt: A further advantage of the invention is that, at least in some instances, acute hepatotoxic effects resulting from use of an antischistosomal or other drug and caused by a metabolic product, may be prevented. […] Accordingly, in this particular situation the administration of the antibacterial agent not only prevents the mutagenic effects of a metabolic product of the intestinal bacterial flora but also the acute hepatotoxic effects which might otherwise be encountered.

[2] = Conversion of CGP 4540 to mutagenic metabolite by route; type: in vivo; settings: oral vs injected intramuscularly or intravenously
[3] = Thin layer chromatography of urine extracts for mutagenic metabolite; type: in vivo, rats
Schistosoma mansoni [4] = experiment: Antischistosomal activity in infected mice; type: in vivo; remark: listed apart in the source
[5] = test system: Salmonella typhimurium Strain TA 100; experiment: Urine analysis (Ames test) of mice treated with CGP 4540, strain TA 100, with/without S9;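 note: mouse urine gathered in 24 h periods after drug dosing, 0.1 and 0.25 ml aliquots plated on the bacteria, plates counted following 48 h at 37 °C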
Protocol: Mice are placed into a metabolism cage and control urines are collected on ice for 24 hours. These animals are then treated with the drug and urine is collected in refrigerated containers for the two subsequent 24-hour periods. The volume of the urine is measured and the urine is stored at -80° C. until assayed.
Urine specimens are thawed, centrifuged at 10,000×g for 15 minutes and sterilized by filtration through a 0.22 μm Millipore filter. Effects of 0.1 and 0.25 ml aliquots are tested on strains TA 100 with and without added S9 microsomal fraction. Plates are counted after incubation at 37° C. for 48 hours. The dose response at these two urine concentrations is used to calculate the number of revertants induced by the total volume of urine excreted in 24 hours. […] Aliquots of this mixture are tested after adjustment to pH 7 in the absence and the presence of the S9 fraction.
The mice were infected with S. typhimurium TA 100 as the test strain and the CGP 4540 was formulated as in Example 1. […] Three control mice were employed.

[6] = CGP 4540 10 mg/kg single dose, no antibiotic, 196 mice, 10 mg/kg
[7] = CGP 4540 10 mg/kg, erythromycin (base) 100 mg/kg
[8] = CGP 4540 10 mg/kg, erythromycylamine 100 mg/kg
[9] = CGP 4540 15 mg/kg, erythromycylamine 100 mg/kg
[10] = succinylsulfathiazole 1 g/kg once daily for 3 days before CGP 4540
[11] = CGP 4540 10 mg/kg, bacitracin 440 mg/kg
[12] = CGP 4540 10 mg/kg, succinylsulfathiazole 1 g/kg + bacitracin 220 mg/kg
[13] = CGP 4540 15 mg/kg, erythromycin (base) 100 mg/kg
[14] = CGP 4540 15 mg/kg, no antibiotic
[15] = CGP 4540 20 mg/kg, bacitracin 440 mg/kg
[16] = CGP 4540 20 mg/kg, no antibacterial
[17] = CGP 4540 20 mg/kg, succinylsulfathiazole 1 g/kg + bacitracin 220 mg/kg

O=[N+]([O-])c1ccc(Nc2ccc(N=C=S)cc2)cc1 [CGP 4540]
Mutagenic activity after incubation of urines with β-glucuronidase (Salmonella typhimurium; 3 hrs at 37° C., conventional rats): No further increase in mutagenic activity | Revertants in excess of controls excreted in 24 hrs (Salmonella typhimurium; conventional rats, urine 0-24 hrs, +S9, 250 mg/kg): 4,900 revertants excreted in 24 hrs and 5,000 revertants excreted in 24 hrs | Revertants in excess of controls excreted in 24 hrs (Salmonella typhimurium; conventional rats, urine 0-24 hrs, -S9, 250 mg/kg): 3,800 revertants excreted in 24 hrs and 3,750 revertants excreted in 24 hrs | Revertants in excess of controls excreted in 24 hrs (Salmonella typhimurium; conventional rats, urine 24-48 hrs, +S9, 250 mg/kg): 2,800 revertants excreted in 24 hrs and 3,050 revertants excreted in 24 hrs | Revertants in excess of controls excreted in 24 hrs (Salmonella typhimurium; conventional rats, urine 24-48 hrs, -S9, 250 mg/kg): 1,600 revertants excreted in 24 hrs and 1,200 revertants excreted in 24 hrs | Revertants in excess of controls excreted in 24 hrs (Salmonella typhimurium; germ-free rats, urine 0-24 hrs, +S9): 0 revertants excreted in 24 hrs | Revertants in excess of controls excreted in 24 hrs (Salmonella typhimurium; germ-free rats, urine 0-24 hrs, -S9): 0 revertants excreted in 24 hrs | Revertants in excess of controls excreted in 24 hrs (Salmonella typhimurium; germ-free rats, urine 24-48 hrs, +S9): 0 revertants excreted in 24 hrs | Revertants in excess of controls excreted in 24 hrs (Salmonella typhimurium; germ-free rats, urine 24-48 hrs, -S9): 0 revertants excreted in 24 hrs | Urinary mutagenic metabolite in germ-free rats (Salmonella typhimurium; urines of germ-free rats (1) and (2)): no mutagenic metabolite was detectable | Mice with parasitological cures (Schistosoma mansoni [1]; [6]): 95% | Mice with parasitological cures (Schistosoma mansoni [1]; [7]): 100% | Reduction in number of worms (Schistosoma mansoni [1]; [7]): 100% | Reduction in number of worms (Schistosoma mansoni [1]; [8]): 100% | Reduction in number of worms (Schistosoma mansoni [1]; [9]): 100% | Schistosomicidal activity of single low doses with or without antibacterial agents (Schistosoma mansoni [1]; single low doses, with vs without antibacterial agents): nearly or equally as effective | Lesions in bile ducts and liver (bile ducts and the liver; 500 mg/kg (50 times the curative dose)): some destructive lesions may be produced in the bile ducts and the liver | Lesions in bile ducts and liver with antibacterial agent (bile ducts and the liver; 500 mg/kg, co-administration of erythromycin): these lesions are prevented | Increase in conversion to mutagenic metabolite, oral vs intramuscular or intravenous [2]: 50% | Spot with Rf similar to isolated mutagenic metabolite in urine extract ([3]; conventional rats, 250 mg/kg oral, urine 0 to 24 hours): recognizable | Spot with Rf similar to isolated mutagenic metabolite in urine extract ([3]; germ-free rats): No such spot appeared | Mutagenic activity in the host mediated assay (S. typhimurium TA 100; in vivo, po): no mutagenic activity was detectable | Mutant colonies found in the host-mediated assay (S. typhimurium TA 100; [10]): very marked decrease | Reduction in number of worms (Schistosoma mansoni [4]; CGP 4540 10 mg/kg single dose, no antibiotic, 196 mice): 99% | Mice with parasitological cures (Schistosoma mansoni [4]; [6]): 96% | Mice with parasitological cures (Schistosoma mansoni [4]; [11]): 88% | Reduction in no. of worms (Schistosoma mansoni [4]; [11]): 98% | Mice with parasitological cures (Schistosoma mansoni [4]; [8]): 100% | Mice with parasitological cures (Schistosoma mansoni [4]; [12]): 92% | Reduction in no. of worms (Schistosoma mansoni [4]; [12]): 99% | Mice with parasitological cures (Schistosoma mansoni [4]; [13]): 100% | Reduction in number of worms (Schistosoma mansoni [4]; [13]): 100% | Mice with parasitological cures (Schistosoma mansoni [4]; [9]): 100% | Mice with parasitological cures (Schistosoma mansoni [4]; [14]): 100% | Reduction in number of worms (Schistosoma mansoni [4]; [14]): 100% | Mice with parasitological cures (Schistosoma mansoni [4]; [15]): 100% | Reduction in no. of worms (Schistosoma mansoni [4]; [15]): 100% | Mice with parasitological cures (Schistosoma mansoni [4]; [16]): 100% | Reduction in no. of worms (Schistosoma mansoni [4]; [16]): 100% | Mice with parasitological cures (Schistosoma mansoni [4]; [17]): 100% | Reduction in no. of worms (Schistosoma mansoni [4]; [17]): 100% | Curative antischistosomal activity after preceding antibiotic treatment (Schistosoma mansoni [4]; erythromycin base or erythromycylamine): not reduced | Effectiveness against schistosomiasis, oral vs intramuscular (Schistosoma mansoni [4]; formulated CGP 4540, oral and intramuscular): about equally effective | Antischistosomal activity after reduction of bacterial flora (Schistosoma mansoni [4]; succinylsulfathiazole 1 g/kg once daily for 3 days, oral): do not appear to affect the antischistosomal activity | Urine revertants in excess of controls ([5]; CGP 4540 100 mg/kg oral, no pretreatment, day 1, +S9): 239 revertants per total 24 hour u | Urine revertants in excess of controls ([5]; CGP 4540 100 mg/kg oral, no pretreatment, day 1, no S9): 56 revertants per total 24 hour u | Urine revertants in excess of controls ([5]; CGP 4540 100 mg/kg oral, no pretreatment, day 2, +S9): 30 revertants per total 24 hour u | Urine revertants in excess of controls ([5]; CGP 4540 100 mg/kg oral, no pretreatment, day 2, no S9): 11 revertants per total 24 hour u | Urine revertants in excess of controls ([5]; CGP 4540 100 mg/kg oral, succinylsulfathiazole 1 g/kg, day 1, +S9): 108 revertants per total 24 hour u | Urine revertants in excess of controls ([5]; CGP 4540 100 mg/kg oral, succinylsulfathiazole 1 g/kg, day 1, no S9): 37 revertants per total 24 hour u | Urine revertants in excess of controls ([5]; CGP 4540 100 mg/kg oral, succinylsulfathiazole 1 g/kg, day 2, +S9): 12 revertants per total 24 hour u | Urine revertants in excess of controls ([5]; CGP 4540 100 mg/kg oral, succinylsulfathiazole 1 g/kg, day 2, no S9): 0 revertants per total 24 hour u | Urine revertants in excess of controls ([5]; CGP 4540 250 mg/kg oral, bacitracin 220 mg/kg, day 1, +S9): 96 revertants per total 24 hour u | Urine revertants in excess of controls ([5]; CGP 4540 250 mg/kg oral, bacitracin 220 mg/kg, day 1, no S9): 31 revertants per total 24 hour u | Urine revertants in excess of controls ([5]; CGP 4540 250 mg/kg oral, bacitracin 220 mg/kg, day 2, +S9): 10 revertants per total 24 hour u | Urine revertants in excess of controls ([5]; CGP 4540 250 mg/kg oral, bacitracin 220 mg/kg, day 2, no S9): 4 revertants per total 24 hour u | Urine revertants in excess of controls ([5]; CGP 4540 250 mg/kg oral, bacitracin 440 mg/kg, day 1, +S9): 0 revertants per total 24 hour u | Urine revertants in excess of controls ([5]; CGP 4540 250 mg/kg oral, bacitracin 440 mg/kg, day 1, no S9): 0 revertants per total 24 hour u | Urine revertants in excess of controls ([5]; CGP 4540 250 mg/kg oral, bacitracin 440 mg/kg, day 2, +S9): 0 revertants per total 24 hour u | Urine revertants in excess of controls ([5]; CGP 4540 250 mg/kg oral, bacitracin 440 mg/kg, day 2, no S9): 0 revertants per total 24 hour u | Urine revertants in excess of controls ([5]; CGP 4540 250 mg/kg oral, erythromycin base 100 mg/kg, day 1, +S9): 0 revertants per total 24 hour u | Urine revertants in excess of controls ([5]; CGP 4540 250 mg/kg oral, erythromycin base 100 mg/kg, day 1, no S9): 0 revertants per total 24 hour u | Urine revertants in excess of controls ([5]; CGP 4540 250 mg/kg oral, erythromycin base 100 mg/kg, day 2, +S9): 0 revertants per total 24 hour u | Urine revertants in excess of controls ([5]; CGP 4540 250 mg/kg oral, erythromycin base 100 mg/kg, day 2, no S9): 0 revertants per total 24 hour u | Urine revertants in excess of controls ([5]; CGP 4540 250 mg/kg oral, no pretreatment, day 1, +S9): 541 revertants per total 24 hour u | Urine revertants in excess of controls ([5]; CGP 4540 250 mg/kg oral, no pretreatment, day 1, no S9): 120 revertants per total 24 hour u | Urine revertants in excess of controls ([5]; CGP 4540 250 mg/kg oral, no pretreatment, day 2, +S9): 89 revertants per total 24 hour u | Urine revertants in excess of controls ([5]; CGP 4540 250 mg/kg oral, no pretreatment, day 2, no S9): 32 revertants per total 24 hour u | Urine revertants in excess of controls ([5]; CGP 4540 250 mg/kg oral, succinylsulfathiazole 1 g/kg + bacitracin 220 mg/kg, day 1, +S9): 0 revertants per total 24 hour u | Urine revertants in excess of controls ([5]; CGP 4540 250 mg/kg oral, succinylsulfathiazole 1 g/kg + bacitracin 220 mg/kg, day 1, no S9): 0 revertants per total 24 hour u | Urine revertants in excess of controls ([5]; CGP 4540 250 mg/kg oral, succinylsulfathiazole 1 g/kg + bacitracin 220 mg/kg, day 2, +S9): 0 revertants per total 24 hour u | Urine revertants in excess of controls ([5]; CGP 4540 250 mg/kg oral, succinylsulfathiazole 1 g/kg + bacitracin 220 mg/kg, day 2, no S9): 0 revertants per total 24 hour u | Urine revertants in excess of controls ([5]; CGP 4540 250 mg/kg oral, succinylsulfathiazole 1 g/kg, day 1, +S9): 269 revertants per total 24 hour u | Urine revertants in excess of controls ([5]; CGP 4540 250 mg/kg oral, succinylsulfathiazole 1 g/kg, day 1, no S9): 73 revertants per total 24 hour u | Urine revertants in excess of controls ([5]; CGP 4540 250 mg/kg oral, succinylsulfathiazole 1 g/kg, day 2, +S9): 30 revertants per total 24 hour u | Urine revertants in excess of controls ([5]; CGP 4540 250 mg/kg oral, succinylsulfathiazole 1 g/kg, day 2, no S9): 7 revertants per total 24 hour u | Mutagenic urinary metabolite [5, 10]: very marked decrease
